Assays:
Type in all cases: in vivo
[1] = system: broad leaf weeds (Lindernia pyxidaria and Monochoria vaginalis); assay: Test Example 2: herbicidal effect test by treatment during growing period in paddy rice cultivation (seven days after seeding); conditions: 120 g/10a active ingredient, assessed 14 days after treatment, dry weight vs untreated area
Method: (§1) This test was conducted in a double system per one agent solution concentration area, and the herbicidal rates (%) were determined by the following equation (Math. 1) on 14 days after the treatment with the agents. Herbicidal Rate (%)={1-(Average Dry Weight (g) of Plant of Treated Area)/(Average Dry Weight (g) of Plant of Untreated Area)}×100 [Math. 1]
(§2) Herbicidal Effect Test by Treatment During Growing Period in Paddy Rice Cultivation
(§3) Wagner pots with an area of 1/10000 ares were filled with a paddy soil, and after adding water, a compound fertilizer (N:P:K=17:17:17) was mixed, followed by soil puddling. Then, Echinochloa crus-galli, broad leaf weeds (Lindernia pyxidaria and Monochoria vaginalis) and Scirpus juncoides, 30 seeds each, were sown in a depth of 0 to 1 cm. Water was poured immediately after seeding, and the water depth was kept at about 3 cm. The subsequent management was conducted in a glass greenhouse. Emulsions prepared using the compounds in Table 4 below according to Formulation Example 5 were diluted with water seven days after seeding, and a certain amount of the water-diluted agent solutions were dropped. The converted amount of the applied active ingredient corresponded to 120 g per 10 ares. The test was conducted in a double system per one agent solution concentration area, and the herbicidal rates (%) were determined by the equation (Math. 1) on 14 days after the treatment with the agents. […] The compound numbers in Table 4 are the same as those in Table 1 and Table 2 above.

[2] = system: Scirpus juncoides; assay: as above; conditions: 120 g/10a active ingredient, assessed 14 days after treatment, dry weight vs untreated area
Method: as §1, §2, §3

[3] = system: Echinochloa crus-galli; assay: as above; conditions: 120 g/10a active ingredient, assessed 14 days after treatment, dry weight vs untreated area
Method: as §1, §2, §3

[4] = system: broad leaf weeds (Lindernia pyxidaria and Monochoria vaginalis); assay: Test Example 1: herbicidal effect test by treatment of rice paddy soil (immediately after seeding); conditions: 120 g/10a active ingredient, dry weight vs untreated area, 14 days after treatment
Method: (§4) Herbicidal Effect Test by Treatment of Rice Paddy Soil
(§5) Wagner pots with an area of 1/10000 ares were filled with a paddy soil, and after adding water, a compound fertilizer (N:P:K=17:17:17) was added, followed by soil puddling. Then, Echinochloa crus-galli, broad leaf weeds (Lindernia pyxidaria and Monochoria vaginalis) and Scirpus juncoides, 30 seeds each, were sown in a depth of 0 to 1 cm. Water was poured immediately after seeding, and the water depth was kept at about 3 cm. The subsequent management was conducted in a glass greenhouse. Immediately after that, emulsions prepared using the compounds in Table 3 below according to Formulation Example 5 were diluted with water, and a certain amount of the water-diluted agent solutions were dropped. The converted amount of the applied active ingredient corresponded to 120 g per 10 ares.
as §1
(§6) The compound numbers in Table 3 are the same as those in Table 1 and Table 2 above.

[5] = system: Scirpus juncoides; assay: as above; conditions: 120 g/10a active ingredient, dry weight vs untreated area, 14 days after treatment
Method: as §4, §5, §1, §6

[6] = system: Echinochloa crus-galli; assay: as above; conditions: 120 g/10a active ingredient, dry weight vs untreated area, 14 days after treatment
Method: as §4, §5, §1, §6

Row | Structure (SMILES) | Herbicidal rate (%) Lindernia pyxidaria [1] [%] | Herbicidal rate (%) Monochoria vaginalis [1] [%] | Herbicidal rate (%) Scirpus juncoides [2] [%] | Herbicidal rate (%) Echinochloa crus-galli [3] [%] | Herbicidal rate (%) Lindernia pyxidaria [4] [%] | Herbicidal rate (%) Monochoria vaginalis [4] [%] | Herbicidal rate (%) Scirpus juncoides [5] [%] | Herbicidal rate (%) Echinochloa crus-galli [6] [%]
1 | Cc1c(Cc2ccccc2NS(=O)(=O)C(F)(F)F)c(=O)on1CCOCc1ccccc1 [Compound 1-238] | 40 | 80 | 80 | 80 | 80 | 80 | 80 | 100
2 | CCN(c1ccccc1Cc1c(C)n(CC(C)C)oc1=O)S(=O)(=O)C(F)(F)F [Compound 1-263] | 40 | 60 | 90 | 90 | 80 | 50 | 60 | 50
3 | CCC(CC)Cn1oc(=O)c(Cc2ccccc2N(CC)S(=O)(=O)C(F)(F)F)c1C [Compound 1-264] | 50 | 80 | 90 | 80 | 80 | 90 | 100 | 90
4 | CCOC(=O)N(c1ccccc1Cc1c(C)n(CC(C)C)oc1=O)S(=O)(=O)C(F)(F)F [Compound 1-608] | 60 | 80 | 80 | 90 | 70 | 80 | 90 | 70
5 | CCCOC(=O)N(c1ccccc1Cc1c(C)n(C(C)COC)oc1=O)S(=O)(=O)C(F)(F)F (centres unmarked) [Compound 1-634] | 90 | 90 | 90 | 90 | 90 | 90 | 90 | 90
6 | Cc1c(Cc2ccccc2N(C(=O)OCC(C)C)S(=O)(=O)C(F)(F)F)c(=O)on1CC(C)C [Compound 1-671] | 60 | 90 | 90 | 90 | 90 | 90 | 90 | 90
7 | Cc1c(Cc2ccccc2N(C(=O)OCC(C)C)S(=O)(=O)C(F)(F)F)c(=O)on1Cc1ccccc1 [Compound 1-677] | 80 | 80 | 90 | 70 | 100 | 100 | 90 | 90
8 | CCN(CC)C(=O)n1oc(=O)c(Cc2ccccc2N(C(=O)OCC(C)C)S(=O)(=O)C(F)(F)F)c1C [Compound 1-679] | 40 | 40 | 40 | 50 | 50 | 50 | 50 | 60
9 | CCCCCCCCn1oc(=O)c(Cc2ccccc2N(S(=O)(=O)C(F)(F)F)S(=O)(=O)C(F)(F)F)c1C [Compound 1-981] | 50 | 40 | 40 | 90 | 60 | 50 | 70 | 80
10 | C#CCn1oc(=O)c(Cc2ccccc2N(S(=O)(=O)C(F)(F)F)S(=O)(=O)C(F)(F)F)c1C [Compound 1-988] | 100 | 100 | 90 | 90 | 100 | 100 | 90 | 90
11 | Cc1c(Cc2ccccc2N(S(=O)(=O)C(F)(F)F)S(=O)(=O)C(F)(F)F)c(=O)on1CC1CC1 [Compound 1-991] | 70 | 80 | 90 | 90 | 100 | 100 | 90 | 90
12 | Cc1c(Cc2ccccc2N(S(=O)(=O)C(F)(F)F)S(=O)(=O)C(F)(F)F)c(=O)on1CC1CCCCC1 [Compound 1-994] | 60 | 80 | 80 | 90 | 100 | 60 | 90 | 90
13 | COCCn1oc(=O)c(Cc2ccccc2N(S(=O)(=O)C(F)(F)F)S(=O)(=O)C(F)(F)F)c1C [Compound 1-996] | 70 | 80 | 90 | 70 | 80 | 80 | 90 | 90
14 | Cc1c(Cc2ccccc2N(S(=O)(=O)C(F)(F)F)S(=O)(=O)C(F)(F)F)c(=O)on1Cc1ccccc1F [Compound 1-1012] | 80 | 80 | 90 | 60 | 100 | 100 | 100 | 90
15 | Cc1c(Cc2ccccc2N(S(=O)(=O)C(F)(F)F)S(=O)(=O)C(F)(F)F)c(=O)on1Cc1ccc(Cl)cc1 [Compound 1-1015] | 90 | 90 | 90 | 70 | 100 | 90 | 90 | 90
16 | Cc1c(Cc2ccccc2N(S(=O)(=O)C(F)(F)F)S(=O)(=O)C(F)(F)F)c(=O)on1Cc1ccc(Br)cc1 [Compound 1-1016] | 70 | 80 | 60 | 40 | 90 | 60 | 80 | 90

From US11109593B2, “Isoxazolin-5-one derivative and herbicide containing same as active ingredient” (HOKKO CHEMICAL INDUSTRY CO., LTD., priority 2017, dated 2021)
